Experimental data from patent publication US8828988B2 (Tetraphase Pharmaceuticals, Inc., priority 2009, dated 2014).
Values after ≈ are worked out from the molar mass of the structure shown. Like-named read-outs stand apart in the source and are kept apart here.

What was measured:
[1] = system: Staphylococcus aureus SA158, tetracycline-resistant tet(K); test: MIC assay, SA158; format: cell-based
[2] = system: Enterococcus faecalis EF159, tetracycline-resistant, tet(M); test: MIC assay, EF159; format: cell-based
[3] = system: E. coli S30 extract system, coupled in vitro transcription/translation, firefly luciferase readout; test: In vitro transcription/translation (TnT) assay; format: biochemical; settings: Table 8
[4] = system: S. aureus ATCC 13709 (Smith); test: Mouse systemic infection model, S. aureus septicemia; settings: survival after 48 hours
[5] = system: Streptococcus pneumoniae SP106, ATCC 49619; test: MIC assay, SP106; format: cell-based
[6] = system: E. coli DH10B(pBAD-tetK), expressing tet(K); test: MIC against recombinant E. coli expressing tet(K); format: cell-based; settings: for MIC: Escherichia coli
Description: (§1) Constructs were transformed into E. coli DH10B for expression. Recombinant strains were pre-induced under optimized conditions with L-arabinose prior to use as inocula in CLSI standardized MIC assays.

in vivo = settings: Sprague-Dawley, rat
[7] = system: Staphylococcus aureus SA161, HA-MRSA, tetracycline-resistant, tet(M); test: MIC assay, SA161; format: cell-based
[8] = system: Staphylococcus aureus SA100, ATCC 13709, MSSA, Smith strain; test: MIC assay, SA100; format: cell-based
[9] = system: Klebsiella pneumoniae KP109, ATCC 13883; test: MIC assay, KP109; format: cell-based; settings: ATCC13883, Table 9, read-out: MIC Klebsiella pneum ATCC 13883
[10] = system: tet(M) strains of S. aureus; test: MIC, CLSI methodology, recent clinical isolates (Example 21); format: cell-based; settings: Staphylococcus aureus, read-out: MIC against tet(M) strains of S. aureus
Experimental: (§2) The assays were run as follows.
(§3) The antibacterial activities of Compounds MIC values were determined according to CLSI methodology. Recent clinical isolates were obtained from Eurofins-Medinet. Antibiotics were obtained from standard commercial sources.

[11] = system: tet(M) and tet(S) strains of E. faecalis; test: as above; format: cell-based; settings: Enterococcus faecalis, read-out: MIC against tet(M) and tet(S) strains of E. faecalis
Experimental: as §2, §3

[12] = system: tet(K) strains of S. aureus; test: as above; format: cell-based; settings: Staphylococcus aureus, read-out: MIC against tet(K) strains of S. aureus
Experimental: as §2, §3

[13] = system: tet(M) strains of S. pneumoniae; test: as above; format: cell-based; settings: Streptococcus pneumoniae, read-out: MIC against tet(M) strains of S. pneumoniae
Experimental: as §2, §3

[14] = system: Staphylococcus aureus SA101, ATCC 29213, MSSA; test: MIC assay, SA101; format: cell-based
[15] = Pharmacokinetic analysis in Sprague-Dawley rats; settings: IV, single dose 1 mg/kg, mean
[16] = system: H. influenzae isolates (Eurofins-Medinet, recent clinical isolates); test: MIC50 and MIC90 analysis (Example 22)
Experimental: (§4) Frozen bacterial strains were thawed and subcultured onto Mueller Hinton Broth (MHB) or other appropriate media (Streptococcus requires blood and Haemophilus requires hemin and NAD). Following incubation overnight, the strains were subcultured onto Mueller Hinton Agar and again incubated overnight. […] Isolated colonies were selected to prepare a starting inoculum equivalent to a 0.5 McFarland standard. […] Antibiotics (stored frozen, thawed and used within 3 hours of thawing) and compounds were further diluted to the desired working concentrations.
(§5) The assays were run as follows. Fifty μL of MHB was added to wells 2-12 of a 96-well plate. One hundred μL of appropriately diluted antibiotic or compound was added to well 1. Fifty μL of antibiotics or compound was removed from well 1 and added to well 2 and the contents of well 2 mixed by pipetting up and down five times. Fifty μL of the mixture in well 2 was removed and added to well 3 and mixed as above. Serial dilutions were continued in the same manner through well 12. Fifty μL was removed from well 12 so that all contained 50 μL. Fifty μL of the working inoculum was then added to all test wells. A growth control well was prepared by adding 50 μL of working inoculum and 50 μL of MHB to an empty well. The plates were then incubated at 37° C. overnight, removed from the incubator and each well was read on a plate reading mirror. The lowest concentration (MIC) of test compound that inhibited the growth of the bacteria was recorded.
(§6) MIC, MIC50 and MIC90 values were determined according to CLSI methodology. S. pneumoniae and H. influenzae isolates were obtained from Eurofins-Medinet and are recent clinical isolates. S. aureus strains were collected from various geographical sources.

[17] = system: Acinetobacter baumannii AB110, ATCC 19606; test: MIC assay, AB110; format: cell-based; settings: ATCC19606, Table 9, read-out: MIC A.baum AB110
E. coli ATCC 25922 = test: Mouse systemic infection model, E. coli septicemia; settings: survival after 48 hours
[18] = system: S. pneumoniae isolates (Eurofins-Medinet, recent clinical isolates); test: MIC50 and MIC90 analysis (Example 22)
Experimental: as §4, §5, §6

[19] = system: Pseudomonas aeruginosa PA111, ATCC 27853; test: MIC assay, PA111; format: cell-based; settings: ATCC27853, Table 9, read-out: MIC P. aeruginosa ATCC 27853
[20] = system: S. aureus strains collected from various geographical sources; test: MIC50 and MIC90 analysis (Example 22)
Experimental: as §4, §5, §6

[21] = system: Enterococcus faecalis EF103, ATCC 29212; test: MIC assay, EF103; format: cell-based
[22] = system: E. coli DH10B(pBAD-tetM), expressing tet(M); test: MIC against recombinant E. coli expressing tet(M); format: cell-based; settings: for MIC: Escherichia coli
Description: as §1

[23] = system: Escherichia coli EC107, ATCC 25922; test: MIC assay, EC107; format: cell-based

## CN(C)CC(C)(C)CNc1nc(Cl)c2c(c1O)C(=O)C1=C(O)[C@]3(O)C(=O)C(C(N)=O)=C(O)[C@@H](N(C)C)[C@@H]3C[C@@H]1C2 [Compound 151]
[1]; Table 8, read-out: MIC S. aureus tetK
  MIC: 0.13 µg/mL (≈ 0.225 µM)
[1]; Table 9, read-out: MIC S. aureus SA158 (tet)K
  MIC: 0.125 µg/mL (≈ 0.216 µM)
[2]; Table 8, read-out: MIC E. faecalis tetM
  MIC: 2 µg/mL (≈ 3.46 µM)
[2]; Table 9, read-out: MIC E. faecalis EF159 (tet)M
  MIC: 2 µg/mL (≈ 3.46 µM)
[3]
  E. coli TnT: 0.7 µg/mL
[4]; CD-1 mice, IP infection, intravenous treatment one hour post-challenge
  PD50 in the mouse septicemia model against S. aureus: 0.36 mg/kg
[4]; mouse septicemia, S. aureus ATCC 13709, intravenous treatment one hour post-challenge
  PD50: 0.36 mg/kg
[5]; ATCC49619, Table 8, read-out: MIC S. pneumoniae ATCC 49619
  MIC: 0.063 µg/mL (≈ 0.109 µM)
[5]; ATCC49619, Table 9, read-out: MIC S. pneum ATCC 49619
  MIC: 0.016 µg/mL (≈ 0.0277 µM)
[6]; read-out: MIC, TetK Induced
  MIC: 1 µg/mL
[6]; read-out: MIC, Uninduced
  MIC: 1 µg/mL
[6]; ratio of TetK induced to uninduced MIC
  MIC ratio, TetK induced to uninduced: 1
[6]; result in words
  Effect of expression of (tet)K on activity: unaffected
In vivo; iv, 1 mg/kg
  AUC(0-t): 4870 ng·h/mL
  Cmax: 2400 ng/mL
  Tmax: 13.2 min
In vivo; oral, 10 mg/kg
  bioavailability: 0.8%
In vivo; po, 10 mg/kg
  AUC(0-t): 395 ng·h/mL
  Cmax: 69.8 ng/mL
  Tmax: 49.8 min
  half-life: 313 min
[7]; Table 8, read-out: MIC S. aureus MRSA, tetM
  MIC: 2 µg/mL (≈ 3.46 µM)
[7]; Table 9, read-out: MIC MRSA (tet)M SA161
  MIC: 2 µg/mL (≈ 3.46 µM)
[8]; Table 9, read-out: MIC S. aureus ATCC 13709
  MIC: 0.5 µg/mL (≈ 0.865 µM)
[8]; Table 12, read-out: MIC S. aureus ATCC 13709
  MIC: 0.5 µg/mL (≈ 0.865 µM)
[9]
  MIC: 2 µg/mL (≈ 3.46 µM)
[10]
  MIC: ≤ 8 µg/mL
[11]
  MIC: ≤ 4 µg/mL
[12]
  MIC: ≤ 1 µg/mL
[13]
  MIC: ≤ 0.25 µg/mL
[14]; Table 8, read-out: MIC S. aureus ATCC 29213
  MIC: 0.25 µg/mL (≈ 0.432 µM)
[14]; Table 9, read-out: MIC S. aureus ATCC 29213
  MIC: 0.25 µg/mL (≈ 0.432 µM)
[15]
  Clobs: 3.3723 mL/min/kg
  Vzobs: 1.25614 L/kg
  half-life: 258 min
[16]; H. influenzae (n = 12)
  MIC Range: 0.25 to 2 µg/mL
[16]; Haemophilus influenzae
  MIC50: 1 µg/mL (≈ 1.73 µM)
  MIC90: 1 µg/mL (≈ 1.73 µM)
[17]
  MIC: 2 µg/mL (≈ 3.46 µM)
E. coli ATCC 25922; CD-1 mice, IP infection, treatment one hour post-challenge
  PD50 in the mouse septicemia model against E. coli: 17.0 mg/kg
E. coli ATCC 25922; mouse septicemia, E. coli ATCC 25922, treatment one hour post-challenge
  PD50: 17.0 mg/kg
[18]; S. pneumoniae (n = 20)
  MIC Range: ≦0.016-0.063 μg/ml
[18]; Streptococcus pneumoniae
  MIC50: ≤ 0.016 µg/mL
  MIC90: 0.063 µg/mL (≈ 0.109 µM)
[19]
  MIC: 32 µg/mL (≈ 55.4 µM)
[20]; S. aureus (n = 20)
  MIC Range: 0.063 to 0.5 µg/mL
[20]; Staphylococcus aureus
  MIC50: 0.13 µg/mL (≈ 0.225 µM)
  MIC90: 0.25 µg/mL (≈ 0.432 µM)
[21]; Enterococcus faecalis, ATCC29212, Table 8, read-out: MIC E. faecalis ATCC 29212
  MIC: 0.25 µg/mL (≈ 0.432 µM)
[21]; Table 9
  MIC E. faecalis ATCC 29212: 0.25 µg/mL (≈ 0.432 µM)
[22]; read-out: MIC, TetM induced
  MIC: 1 µg/mL
[22]; read-out: MIC, Uninduced
  MIC: 0.5 µg/mL
[22]; ratio of MICs
  Ratio (TetM induced / Uninduced): 2
[22]; result in words
  Effect of expression of (tet)M on activity: minimally affected
[23]; ATCC25922, Table 8, read-out: MIC E. coli ATCC 25922
  MIC: 0.5 µg/mL (≈ 0.865 µM)
[23]; ATCC25922, Table 9, read-out: MIC E. coli ATCC 25922
  MIC: 0.5 µg/mL (≈ 0.865 µM)
[23]; ATCC25922, Table 12, read-out: MIC E. coli ATCC 25922
  MIC: 0.25 µg/mL (≈ 0.432 µM)
